From patent publication US6852673B2, “Herbicidal pyridine compounds” (BASF Aktiengesellschaft, priority 1998, dated 2005)

What was measured:
Format in all cases: in vivo
Zea mays (ZEAMX) [1] = assay: Pre-emergence herbicidal evaluation, maize
How it was run: (§1)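 Visual injury ratings are taken 2 to 4 weeks after treatment. Before that, seeds are planted in soil-filled pots and sprayed at once with the compound in aqueous acetone, dosed at about 0.0125 to 0.4 kg per hectare, and the pots are grown on greenhouse benches.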

Stellaria media (STEME) = assay: Pre-emergence herbicidal evaluation, chickweed
How it was run: as §1

Solanum nigrum (SOLNI) [2] = assay: Pre-emergence herbicidal evaluation, black nightshade
How it was run: as §1

Lamium purpureum (LAMPU) [3] = assay: Pre-emergence herbicidal evaluation, purple deadnettle
How it was run: as §1

[4] = test system: Matricaria inodora (MATIN); assay: Post-emergence herbicidal evaluation, mayweed; details: rated 2 to 4 weeks after treatment
How it was run: (§2)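 Emerged seedlings receive a water-diluted acetone formulation at about 0.03 to 0.4 kg per hectare per pot and are grown on in the greenhouse. Scoring after 2–4 weeks uses a 0 (untreated-like growth) to 9 (death) scale.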

[5] = test system: Echinochloa grus galli (ECHCG); assay: Pre-emergence herbicidal evaluation, barnyard grass
How it was run: as §1

[6] = test system: Triticum aestivum (TRZAW); assay: Pre-emergence herbicidal evaluation, winter wheat
How it was run: as §1

[7] = test system: Ipomoea hederacea (IPOHE); assay: Post-emergence herbicidal evaluation, morning glory; details: rated 2 to 4 weeks after treatment
How it was run: as §2

[8] = test system: Triticum aestivum (TRZAW); assay: Post-emergence herbicidal evaluation, winter wheat; details: rated 2 to 4 weeks after treatment
How it was run: as §2

Solanum nigrum (SOLNI) [9] = assay: Post-emergence herbicidal evaluation, black nightshade; details: rated 2 to 4 weeks after treatment
How it was run: as §2

Lamium purpureum (LAMPU) [10] = assay: Post-emergence herbicidal evaluation, purple deadnettle; details: rated 2 to 4 weeks after treatment
How it was run: as §2

[11] = test system: Echinochloa grus galli (ECHCG); assay: Post-emergence herbicidal evaluation, barnyard grass; details: rated 2 to 4 weeks after treatment
Description: (§3) [table] [table] […] These acetone solutions are diluted with water and the resulting formulations applied at dosage levels equivalent of about 0.03 to 0.4 kg per hectare of test compound per pot. After spraying the plants are placed on greenhouse benches and are cared for in the usual manner, commensurate with conventional greenhouse practices. From 2 to 4 weeks after treatment, the seedling plants are examined and rated according to the rating system provided above. A rating 0 indicates growth as untreated control, a rating 9 indicates death.

Oryza sativum (ORYSA) [12] = assay: Post-emergence herbicidal evaluation, rice; details: rated 2 to 4 weeks after treatment
How it was run: as §2

Zea mays (ZEAMX) [13] = assay: Post-emergence herbicidal evaluation, maize; details: rated 2 to 4 weeks after treatment
How it was run: as §2

Glycine max (GLXMA) [14] = assay: Pre-emergence herbicidal evaluation, soyabeans
How it was run: as §1

[15] = test system: Alopecurus myosuroides (ALOMY); assay: Pre-emergence herbicidal evaluation, black grass
How it was run: as §1

Galium aparine (GALAP) = assay: Pre-emergence herbicidal evaluation, cleaver
How it was run: as §1

Oryza sativum (ORYSA) [16] = assay: Pre-emergence herbicidal evaluation, rice
How it was run: as §1

Glycine max (GLXMA) [17] = assay: Post-emergence herbicidal evaluation, soyabeans; details: rated 2 to 4 weeks after treatment
Description: as §3

Hordeum vulgare (HORVW) [18] = assay: Pre-emergence herbicidal evaluation, winter barley
How it was run: as §1

[19] = test system: Alopecurus myosuroides (ALOMY); assay: Post-emergence herbicidal evaluation, black grass; details: rated 2 to 4 weeks after treatment
How it was run: as §2

[20] = test system: Abutilon theophrasti (ABUTH); assay: Post-emergence herbicidal evaluation, velvetleaf; details: rated 2 to 4 weeks after treatment
How it was run: as §2

[21] = test system: Ambrosia artemiisifolia (AMBEL); assay: Post-emergence herbicidal evaluation, ragweed; details: rated 2 to 4 weeks after treatment
How it was run: as §2

[22] = test system: Digitaria sanguinalis (DIGSA); assay: Post-emergence herbicidal evaluation, large crabgrass; details: rated 2 to 4 weeks after treatment
How it was run: as §2

Setaria viridis (SETVI) = assay: Pre-emergence herbicidal evaluation, green foxtail
How it was run: as §1

Hordeum vulgare (HORVW) [23] = assay: Post-emergence herbicidal evaluation, winter barley; details: rated 2 to 4 weeks after treatment
How it was run: as §2

## Cc1cc(OC/C=C/C(F)(F)F)nc(Oc2cc(C(F)(F)F)nn2C)c1 [Example 1, (E)-2-(1-Methyl-3-trifluoromethylpyrazol-5-yloxy)-4-methyl-6-(4,4,4-trifluorobut-2-enyloxy)pyridine]
Zea mays (ZEAMX) [1]; dose 0.013 kg/ha
  ZEAMX rating: 1 (1 - Trace effect)
Zea mays (ZEAMX) [1]; dose 0.025 kg/ha
  ZEAMX rating: 2 (2 - Slight effect)
Zea mays (ZEAMX) [1]; dose 0.4 kg/ha
  ZEAMX rating: 5 (5 - Definite injury)
Stellaria media (STEME)
  activity against Stellaria: superior activity
Stellaria media (STEME); dose 0.013 kg/ha
  STEME rating: 5 (5 - Definite injury)
Stellaria media (STEME); dose 0.025 kg/ha
  STEME rating: 9 (9 - Complete kill)
Stellaria media (STEME); dose 0.1 kg/ha
  STEME rating: 9 (9 - Complete kill)
Stellaria media (STEME); dose 0.4 kg/ha
  STEME rating: 9 (9 - Complete kill)
Solanum nigrum (SOLNI) [2]; dose 0.013 kg/ha
  SOLNI rating: 4 (4 - Injury)
Solanum nigrum (SOLNI) [2]; dose 0.025 kg/ha
  SOLNI rating: 8 (8 - Approaching complete kill)
Solanum nigrum (SOLNI) [2]; dose 0.1 kg/ha
  SOLNI rating: 9 (9 - Complete kill)
Solanum nigrum (SOLNI) [2]; dose 0.4 kg/ha
  SOLNI rating: 9 (9 - Complete kill)
Lamium purpureum (LAMPU) [3]; dose 0.013 kg/ha
  LAMPU rating: 8 (8 - Approaching complete kill)
Lamium purpureum (LAMPU) [3]; dose 0.025 kg/ha
  LAMPU rating: 9 (9 - Complete kill)
Lamium purpureum (LAMPU) [3]; dose 0.1 kg/ha
  LAMPU rating: 9 (9 - Complete kill)
Lamium purpureum (LAMPU) [3]; dose 0.4 kg/ha
  LAMPU rating: 9 (9 - Complete kill)
[4]; dose 0.03 kg/ha
  MATIN rating: 8 (8 - Approaching complete kill)
[4]; dose 0.1 kg/ha
  MATIN rating: 8 (8 - Approaching complete kill)
[4]; dose 0.4 kg/ha
  MATIN rating: 8 (8 - Approaching complete kill)
[5]; dose 0.013 kg/ha
  ECHCG rating: 3 (3 - Moderate effect)
[5]; dose 0.025 kg/ha
  ECHCG rating: 5 (5 - Definite injury)
[5]; dose 0.1 kg/ha
  ECHCG rating: 7 (7 - Good herbicidal effect)
[5]; dose 0.4 kg/ha
  ECHCG rating: 9 (9 - Complete kill)
[6]; dose 0.013 kg/ha
  TRZAW rating: 1 (1 - Trace effect)
[6]; dose 0.025 kg/ha
  TRZAW rating: 1 (1 - Trace effect)
[6]; dose 0.1 kg/ha
  TRZAW rating: 3 (3 - Moderate effect)
[6]; dose 0.4 kg/ha
  TRZAW rating: 4 (4 - Injury)
[7]; dose 0.03 kg/ha
  IPOHE rating: 9 (9 - Complete kill)
[7]; dose 0.1 kg/ha
  IPOHE rating: 9 (9 - Complete kill)
[7]; dose 0.4 kg/ha
  IPOHE rating: 9 (9 - Complete kill)
[8]; dose 0.03 kg/ha
  TRZAW rating: 2 (2 - Slight effect)
[8]; dose 0.1 kg/ha
  TRZAW rating: 3 (3 - Moderate effect)
[8]; dose 0.4 kg/ha
  TRZAW rating: 5 (5 - Definite injury)
Solanum nigrum (SOLNI) [9]; dose 0.03 kg/ha
  SOLNI rating: 5 (5 - Definite injury)
Solanum nigrum (SOLNI) [9]; dose 0.1 kg/ha
  SOLNI rating: 5 (5 - Definite injury)
Solanum nigrum (SOLNI) [9]; dose 0.4 kg/ha
  SOLNI rating: 5 (5 - Definite injury)
Lamium purpureum (LAMPU) [10]; dose 0.03 kg/ha
  LAMPU rating: 8 (8 - Approaching complete kill)
Lamium purpureum (LAMPU) [10]; dose 0.1 kg/ha
  LAMPU rating: 8 (8 - Approaching complete kill)
Lamium purpureum (LAMPU) [10]; dose 0.4 kg/ha
  LAMPU rating: 8 (8 - Approaching complete kill)
[11]; dose 0.03 kg/ha
  ECHCG rating: 5 (5 - Definite injury)
[11]; dose 0.1 kg/ha
  ECHCG rating: 8 (8 - Approaching complete kill)
[11]; dose 0.4 kg/ha
  ECHCG rating: 8 (8 - Approaching complete kill)
Oryza sativum (ORYSA) [12]; dose 0.03 kg/ha
  ORYSA rating: 2 (2 - Slight effect)
Oryza sativum (ORYSA) [12]; dose 0.1 kg/ha
  ORYSA rating: 3 (3 - Moderate effect)
Oryza sativum (ORYSA) [12]; dose 0.4 kg/ha
  ORYSA rating: 5 (5 - Definite injury)
Zea mays (ZEAMX) [13]; dose 0.03 kg/ha
  ZEAMX rating: 2 (2 - Slight effect)
Zea mays (ZEAMX) [13]; dose 0.1 kg/ha
  ZEAMX rating: 5 (5 - Definite injury)
Zea mays (ZEAMX) [13]; dose 0.4 kg/ha
  ZEAMX rating: 6 (6 - Herbicidal effect)
Glycine max (GLXMA) [14]; dose 0.013 kg/ha
  GLXMA rating: 1 (1 - Trace effect)
Glycine max (GLXMA) [14]; dose 0.025 kg/ha
  GLXMA rating: 1 (1 - Trace effect)
Glycine max (GLXMA) [14]; dose 0.1 kg/ha
  GLXMA rating: 4 (4 - Injury)
Glycine max (GLXMA) [14]; dose 0.4 kg/ha
  GLXMA rating: 5 (5 - Definite injury)
[15]; dose 0.013 kg/ha
  ALOMY rating: 4 (4 - Injury)
[15]; dose 0.025 kg/ha
  ALOMY rating: 6 (6 - Herbicidal effect)
[15]; dose 0.1 kg/ha
  ALOMY rating: 8 (8 - Approaching complete kill)
[15]; dose 0.4 kg/ha
  ALOMY rating: 9 (9 - Complete kill)
Galium aparine (GALAP); dose 0.013 kg/ha
  GALAP rating: 1 (1 - Trace effect)
Galium aparine (GALAP); dose 0.025 kg/ha
  GALAP rating: 2 (2 - Slight effect)
Galium aparine (GALAP); dose 0.1 kg/ha
  GALAP rating: 7 (7 - Good herbicidal effect)
Galium aparine (GALAP); dose 0.4 kg/ha
  GALAP rating: 9 (9 - Complete kill)
Oryza sativum (ORYSA) [16]; dose 0.013 kg/ha
  ORYSA rating: 2 (2 - Slight effect)
Oryza sativum (ORYSA) [16]; dose 0.025 kg/ha
  ORYSA rating: 2 (2 - Slight effect)
Oryza sativum (ORYSA) [16]; dose 0.1 kg/ha
  ORYSA rating: 4 (4 - Injury)
Oryza sativum (ORYSA) [16]; dose 0.4 kg/ha
  ORYSA rating: 5 (5 - Definite injury)
Glycine max (GLXMA) [17]; dose 0.03 kg/ha
  GLXMA rating: 6 (6 - Herbicidal effect)
Glycine max (GLXMA) [17]; dose 0.1 kg/ha
  GLXMA rating: 8 (8 - Approaching complete kill)
Glycine max (GLXMA) [17]; dose 0.4 kg/ha
  GLXMA rating: 8 (8 - Approaching complete kill)
Hordeum vulgare (HORVW) [18]; dose 0.013 kg/ha
  HORVW rating: 1 (1 - Trace effect)
Hordeum vulgare (HORVW) [18]; dose 0.025 kg/ha
  HORVW rating: 2 (2 - Slight effect)
Hordeum vulgare (HORVW) [18]; dose 0.1 kg/ha
  HORVW rating: 5 (5 - Definite injury)
Hordeum vulgare (HORVW) [18]; dose 0.4 kg/ha
  HORVW rating: 5 (5 - Definite injury)
[19]; dose 0.03 kg/ha
  ALOMY rating: 6 (6 - Herbicidal effect)
[19]; dose 0.1 kg/ha
  ALOMY rating: 8 (8 - Approaching complete kill)
[19]; dose 0.4 kg/ha
  ALOMY rating: 8 (8 - Approaching complete kill)
[20]; dose 0.03 kg/ha
  ABUTH rating: 8 (8 - Approaching complete kill)
[20]; dose 0.1 kg/ha
  ABUTH rating: 8 (8 - Approaching complete kill)
[20]; dose 0.4 kg/ha
  ABUTH rating: 8 (8 - Approaching complete kill)
[21]; dose 0.03 kg/ha
  AMBEL rating: 6 (6 - Herbicidal effect)
[21]; dose 0.1 kg/ha
  AMBEL rating: 7 (7 - Good herbicidal effect)
[21]; dose 0.4 kg/ha
  AMBEL rating: 7 (7 - Good herbicidal effect)
[22]; dose 0.03 kg/ha
  DIGSA rating: 7 (7 - Good herbicidal effect)
[22]; dose 0.1 kg/ha
  DIGSA rating: 8 (8 - Approaching complete kill)
[22]; dose 0.4 kg/ha
  DIGSA rating: 8 (8 - Approaching complete kill)
Setaria viridis (SETVI)
  activity against Setaria: superior activity
Setaria viridis (SETVI); dose 0.013 kg/ha
  SETVI rating: 9 (9 - Complete kill)
Setaria viridis (SETVI); dose 0.025 kg/ha
  SETVI rating: 9 (9 - Complete kill)
Setaria viridis (SETVI); dose 0.1 kg/ha
  SETVI rating: 9 (9 - Complete kill)
Setaria viridis (SETVI); dose 0.4 kg/ha
  SETVI rating: 9 (9 - Complete kill)
Hordeum vulgare (HORVW) [23]; dose 0.03 kg/ha
  HORVW rating: 3 (3 - Moderate effect)
Hordeum vulgare (HORVW) [23]; dose 0.1 kg/ha
  HORVW rating: 5 (5 - Definite injury)
Hordeum vulgare (HORVW) [23]; dose 0.4 kg/ha
  HORVW rating: 5 (5 - Definite injury)
